The results in this text go back to US3950537A, “Gastrointestinally active thioureas” (Rohm and Haas Company, priority 1975, dated 1976).

In one experiment the test system is gastric secretion. The experiment can be described thus: Antisecretory test (pyloric ligation, gastric secretion volume). Type of experiment: in vivo, Wistar rats (adult female). To be noted: Rattus norvegicus; orally 1 hour prior to pyloric ligation or subcutaneously immediately after; 5 h after ligation; maximum dosage 10 mg./kg.; read-out: Antisecretory Activity ED50 (50% reduction in the volume of gastric secretion). As to the method:
Adult female Wistar rats weighing 140 to 160 g. were starved for 24 hours prior to the test. The animals were anaesthetized with ether, shaved on the abdomen, and a small midline incision made. The pylorus was exposed, ligated, and the wound subsequently closed with wound clips. The animals were treated with the test compound administered either orally 1 hour prior to pyloric ligation or subcutaneously immediately after ligation. The test compound was administered in distilled water or 0.5% methyl cellulose. Six animals were used for each treatment. Five hours following the ligation, the animals were sacrificed, the stomachs were carefully removed and opened, and the gastric contents measured for volume and titratable acidity. […] A maximum dosage of 10 mg./kg. was used for the test compounds.

The subject of experiment [1] is charcoal entering the cecum. The experiment can be described thus: Antimotility test (charcoal entering the cecum). Type of experiment: in vivo, mice (adult male). To be noted: Mus musculus; oral, 1 h before charcoal; examined 3.5 h after charcoal; maximum dosage 30 mg./kg.; read-out: Antimotility ED50 (prevented the charcoal from entering the cecum in 50% of the treated mice).
Description: Adult male mice weighing in the range of 20 to 30 g. were starved for 24 hours prior to the test. The animals were then treated orally with the test compound dissolved in water or suspended in methyl cellulose. One hour later, each animal was dosed with 0.2 ml. of a charcoal suspension consisting of 5% activated charcoal suspended in 0.25% methyl cellulose. The animals were sacrificed 3.5 hours after the charcoal administration and their cecums examined for the presence or absence of charcoal. […] A maximum dosage of 30 mg./kg. was used.

The subject of another experiment is diarrhea. Nature of the experiment: Antidiarrheal test (castor oil diarrhea). The format is in vivo, Swiss-Webster mice (adult male). To be noted: Mus musculus; oral, 1 h before castor oil; diarrhea noted 3 h later; maximum 30 mg./kg.; read-out: Antidiarrheal ED50 (inhibited diarrhea in 50% of the treated mice). The procedure: In this test adult male Swiss-Webster mice weighing 30 to 40 g. were employed, using 6 mice per treatment. The test compound was administered orally in a dosage series with a maximum of 30 mg./kg. either in water if soluble or else in 0.5% methyl cellulose. One hour after treatment, each animal received a single dose of 0.3 ml. of castor oil, administered orally. The animals were then individually caged and provided food and water.

As usually defined, the ED50 is the midpoint of the dose-response relation. As to `OCCNC(=S)Nc1ccc(Cl)cc1Cl` [P], the ED50 in the experiment on gastric secretion is above 10 mg/kg; in experiment [1], above 30 mg/kg; in the experiment on diarrhea it was above 30 mg/kg.
Turning to `CC(C)[N+](C)(CCOC(=O)C1c2ccccc2Oc2ccccc21)C(C)C` [Pro-Banthine, propantheline bromide, reference compound], the 50% effective dose (ED50) in the experiment on gastric secretion was 8 mg/kg; in experiment [1], 14.7 mg/kg; in the experiment with diarrhea, above 80 mg/kg.
Taken in the same sequence, the figures for `Cc1cc(O)ccc1NC(=S)NCCO` [Q] were above 10 mg/kg, above 30 mg/kg and above 30 mg/kg.
The matching figures for `COc1ccc(NC(=S)NCCO)c(C)c1` [R]: above 10 mg/kg, 12.5 mg/kg and 30 mg/kg.
Taken in the same sequence, the figures for `Cc1cc(C)c(NC(=S)NCCO)c(C)c1` [S] were below 10 mg/kg, 6.4 mg/kg and below 30 mg/kg.
For `OCCNC(=S)Nc1ccc2ccccc2c1` [U], the results for the ED50 (with gastric secretion; in experiment [1]; in the experiment on diarrhea) were above 10 mg/kg, above 30 mg/kg and above 30 mg/kg, respectively.
